Test results published in ChEMBL document CHEMBL4382242, “Novel racemosin B derivatives as new therapeutic agents for aggressive breast cancer” (Bioorg Med Chem, 2018).
Blank lines part the entries; values can stand above or below the compound they belong to. Calls of active or inactive are those of the source. No cut-off for these calls is given here.

Key:
[1] = tested on: MDA-MB-231; test: Growth inhibition of human MDA-MB-231 cells after 72 hrs by MTT assay; assay type: functional, cell-based; conditions: MDA-MB-231, 72 h
[2] = tested on: MCF7; test: Growth inhibition of human MCF7 cells after 72 hrs by MTT assay; assay type: functional, cell-based; conditions: MCF7, 72 h
[3] = tested on: HEL; test: Growth inhibition of HEL cells after 72 hrs by MTT assay; assay type: functional, cell-based; conditions: Homo sapiens
[4] = tested on: K562; test: Growth inhibition of human K562 cells after 72 hrs by MTT assay; assay type: functional, cell-based; conditions: K562, 72 h
[5] = tested on: 4T1; test: Growth inhibition of mouse 4T1 cells after 72 hrs by MTT assay; assay type: functional, cell-based; conditions: 4T1, 72 h
[6] = Growth inhibition of human WM9 cells after 72 hrs by MTT assay; assay type: functional; conditions: WM9, 72 h
[7] = Growth inhibition of human WM35 cells after 72 hrs by MTT assay; assay type: functional; conditions: WM35, 72 h
[8] = tested on: MDA-MB-231; test: Growth inhibition of human MDA-MB-231 cells at 1 to 5 uM after 72 hrs by MTT assay; assay type: functional, cell-based
[9] = tested on: MDA-MB-231; test: Induction of morphological changes in human MDA-MB-231 cells assessed as cell detachment at 5 uM after 24 hrs; assay type: functional, cell-based
[10] = tested on: MDA-MB-231; test: Cell cycle arrest in human MDA-MB-231 cells assessed as accumulation at G1 phase at 5 uM after 24 hrs by propidium iodide staining based flow cytometry (reference value: 47.9%); assay type: functional
[11] = tested on: MDA-MB-231; test: Cell cycle arrest in human MDA-MB-231 cells assessed as accumulation at S phase at 5 uM after 24 hrs by propidium iodide staining based flow cytometry (reference value: 29.76%); assay type: functional
[12] = tested on: MDA-MB-231; test: Cell cycle arrest in human MDA-MB-231 cells assessed as accumulation at G2/M phase at 5 uM after 24 hrs by propidium iodide staining based flow cytometry (reference value: 18.5%); assay type: functional
[13] = tested on: MDA-MB-231; test: Cell cycle arrest in human MDA-MB-231 cells assessed as accumulation at G1 phase at 5 uM after 48 hrs by propidium iodide staining based flow cytometry (reference value: 3.19%); assay type: functional
[14] = tested on: MDA-MB-231; test: Cell cycle arrest in human MDA-MB-231 cells assessed as accumulation at S phase at 5 uM after 48 hrs by propidium iodide staining based flow cytometry (reference value: 31.71%); assay type: functional
[15] = tested on: MDA-MB-231; test: Cell cycle arrest in human MDA-MB-231 cells assessed as accumulation at G2/M phase at 5 uM after 48 hrs by propidium iodide staining based flow cytometry (reference value: 17.79%); assay type: functional
[16] = tested on: MDA-MB-231; test: Induction of apoptosis in human MDA-MB-231 cells assessed as live cells at 5 uM after 24 hrs by Annexin V-FITC/propidium iodide staining based flow cytometry (reference value: 90.8%); assay type: functional
[17] = tested on: MDA-MB-231; test: Induction of apoptosis in human MDA-MB-231 cells assessed as early apoptotic cells at 5 uM after 24 hrs by Annexin V-FITC/propidium iodide staining based flow cytometry (reference value: 3.7%); assay type: functional
[18] = tested on: MDA-MB-231; test: Induction of apoptosis in human MDA-MB-231 cells assessed as late apoptotic cells at 5 uM after 24 hrs by Annexin V-FITC/propidium iodide staining based flow cytometry (reference value: 4.8%); assay type: functional
[19] = tested on: MDA-MB-231; test: Induction of apoptosis in human MDA-MB-231 cells assessed as necrotic cells at 5 uM after 24 hrs by Annexin V-FITC/propidium iodide staining based flow cytometry (reference value: 0.7%); assay type: functional
[20] = tested on: MDA-MB-231; test: Induction of apoptosis in human MDA-MB-231 cells assessed as live cells at 5 uM after 48 hrs by Annexin V-FITC/propidium iodide staining based flow cytometry (reference value: 87.6%); assay type: functional
[21] = tested on: MDA-MB-231; test: Induction of apoptosis in human MDA-MB-231 cells assessed as early apoptotic cells at 5 uM after 48 hrs by Annexin V-FITC/propidium iodide staining based flow cytometry (reference value: 5.3%); assay type: functional
[22] = tested on: MDA-MB-231; test: Induction of apoptosis in human MDA-MB-231 cells assessed as late apoptotic cells at 5 uM after 48 hrs by Annexin V-FITC/propidium iodide staining based flow cytometry (reference value: 6.5%); assay type: functional
[23] = tested on: MDA-MB-231; test: Induction of apoptosis in human MDA-MB-231 cells assessed as necrotic cells at 5 uM after 48 hrs by Annexin V-FITC/propidium iodide staining based flow cytometry (reference value: 0.7%); assay type: functional
[24] = tested on: MDA-MB-231; test: Inhibition of autophagy in human MDA-MB-231 cells assessed as LC3-2 accumulation at 5 uM after 16 hrs by DAPI staining based immunofluorescence assay; assay type: functional, cell-based
[25] = tested on: MDA-MB-231; test: Inhibition of autophagy in human MDA-MB-231 cells assessed as increase in p62 protein expression at 5 uM after 16 hrs by Western blot analysis; assay type: functional, cell-based
[26] = molecular target: Serine/threonine-protein kinase mTOR (Homo sapiens) (UniProt P42345); test: Inhibition of mTOR phosphorylation in human MDA-MB-231 cells at 5 uM after 16 hrs by Western blot analysis; assay type: cell-based
[27] = tested on: MDA-MB-231; test: Induction of apoptosis in human MDA-MB-231 cells assessed as increase in Cyclin-B1 protein expression at 5 uM after 16 hrs by Western blot analysis; assay type: functional, cell-based
[28] = tested on: MDA-MB-231; test: Induction of apoptosis in human MDA-MB-231 cells assessed as increase in Bax protein expression at 5 uM after 16 hrs by Western blot analysis; assay type: functional, cell-based
[29] = tested on: MDA-MB-231; test: Induction of apoptosis in human MDA-MB-231 cells assessed as decrease in Bcl2 protein expression at 5 uM after 16 hrs by Western blot analysis; assay type: functional, cell-based

SMILES: CN1CCN(CCNC(=O)c2cc3c4ccccc4[nH]c3c3c2[nH]c2ccccc23)CC1
IC50 [1]: 2.1 µM
IC50 [2]: 5.33 µM

SMILES: COC(=O)c1cc2c3ccccc3[nH]c2c2c1[nH]c1ccc(OC)cc12
IC50 [1]: > 40 µM
IC50 [2]: > 40 µM

SMILES: CN(C)CCCNC(=O)c1cc2c3ccccc3[nH]c2c2c1[nH]c1ccccc12
IC50 [1]: 4.48 µM
IC50 [2]: 3.7 µM

SMILES: O=C(NCCN1CCOCC1)c1cc2c3ccccc3[nH]c2c2c1[nH]c1ccccc12
IC50 [1]: 4.4 µM
IC50 [2]: 7.76 µM

SMILES: COc1cccc2c1C(=O)c1c(O)c3c(c(O)c1C2=O)C[C@@](O)(C(=O)CO)C[C@@H]3O[C@H]1C[C@H](N)[C@H](O)[C@H](C)O1 [DOXORUBICIN]
IC50 [1]: 0.25 µM
IC50 [2]: 0.42 µM

SMILES: COC(=O)c1cc2c3ccccc3[nH]c2c2c1[nH]c1ccccc12
IC50 [1]: > 40 µM
IC50 [2]: > 40 µM

SMILES: CC(C)N(CCNC(=O)c1cc2c3ccccc3[nH]c2c2c1[nH]c1ccccc12)C(C)C
IC50 [1]: 1.72 µM
IC50 [2]: 3.12 µM

SMILES: COc1ccc2[nH]c3c(C(=O)NCCN(C)C)cc4c5ccccc5[nH]c4c3c2c1
IC50 [1]: 2.74 µM
IC50 [2]: 5.17 µM

SMILES: COc1cc([C@@H]2c3cc4c(cc3[C@@H](O[C@@H]3O[C@@H]5CO[C@@H](C)O[C@H]5[C@H](O)[C@H]3O)[C@H]3COC(=O)[C@H]23)OCO4)cc(OC)c1O [ETOPOSIDE]
IC50 [3]: 0.92 µM
IC50 [4]: 9.23 µM
IC50 [1]: > 10 µM
IC50 [2]: > 10 µM
IC50 [5]: > 10 µM
IC50 [6]: 1.75 µM
IC50 [7]: 0.4 µM
growth inhibition (GI) [8]: Active
Activity [9]: Active
Activity [10]: 7.59%
Activity [11]: 19.24%
Activity [12]: 63.98%
Activity [13]: 8.57%
Activity [14]: 15.48%
Activity [15]: 70.43%
Activity [16]: 90.7%
Activity [17]: 4.6%
Activity [18]: 4%
Activity [19]: 0.7%
Activity [20]: 75.5%
Activity [21]: 5.5%
Activity [22]: 8.8%
Activity [23]: 10.1%
inhibition [24]: inactive
inhibition [25]: inactive
inhibition [26]: inactive
Activity [27]: Active
Activity [28]: Active
Activity [29]: Active

The remaining compounds from weak to strong by IC50 [1], led by results:

IC50 [1]: 5.7 µM
IC50 [2]: 8.4 µM
SMILES: O=C(NCCN1CCCC1)c1cc2c3ccccc3[nH]c2c2c1[nH]c1cc(Cl)ccc12

IC50 [1]: 3.53 µM
IC50 [2]: 5.83 µM
SMILES: CCN1CCCC1CNC(=O)c1cc2c3ccccc3[nH]c2c2c1[nH]c1ccccc12 (configuration not stated)

IC50 [1]: 2.84 µM
IC50 [2]: 5.58 µM
SMILES: COc1ccc2[nH]c3c(C(=O)NCCN4CCCC4)cc4c5ccccc5[nH]c4c3c2c1

IC50 [1]: 2.05 µM
IC50 [2]: 4.85 µM
SMILES: O=C(NCCNCCO)c1cc2c3ccccc3[nH]c2c2c1[nH]c1ccccc12

IC50 [1]: 1.82 µM
IC50 [2]: 1.3 µM
SMILES: O=C(NCCN1CCCC1)c1cc2c3ccccc3[nH]c2c2c1[nH]c1ccc(Br)cc12

IC50 [1]: 1.43 µM
IC50 [2]: 3.39 µM
SMILES: CN(C)CCNC(=O)c1cc2c3ccccc3[nH]c2c2c1[nH]c1ccccc12
